Test results: patent US20030065039A1, “Biologically active 1,3-bis-aromatic-prop-2-en-1-ones, 1,3-bis-aromatic-propan-1-ones, and 1,3-bis-aromatic-prop-2-yn-1-ones” (Statens Serum Institute, priority 1997, published 2003)
Like-named read-outs stand apart in the source and are kept apart here.

Tests used:
Assay type in all cases: cell-based
Leishmania promastigotes = Leishmania promastigotes Assay; conditions: Leishmania; promastigotes, 3H-thymidine uptake; read-out: Leishmania IC50 ± SD
Outline: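 L. major (WHO Iran vaccine strain) and L. donovani MHOM/KE/85/NLB 274 promastigotes (3×10^6/ml, day 3 and 6 cultures) exposed to compound 2 h at 26 °C, then 3H-thymidine 18 h; incorporation counted by scintillation. Microscopic counts and flagellar motility also assessed.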

human lymphocytes = test: Lymphocyte Proliferation Assay; conditions: Lymphocyte; PHA provoked proliferation of human lymphocytes; read-out: Lymphocytes IC50 ± SD
Outline: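 Ficoll-isolated human blood mononuclear cells (0.63×10^5/ml) in RPMI 1640 with 5% FCS were cultured in triplicate with test compound and PHA or PPD for 3 or 7 days. Proliferation measured by ^3H-thymidine incorporation over the final 24 h; triplicate median recorded.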

TNF-α = TNF-α production by human peripheral blood mononuclear cells, culture supernatant (ELISA); conditions: Homo sapiens, PBMC, read-out: percentage inhibition of TNF-α production; for inhibition at 1 µg/mL: drug 1 μg/ml; for inhibition at 5 µg/mL: drug 5 μg/ml; for inhibition at 10 µg/mL: drug 10 μg/ml; for inhibition at 20 µg/mL: drug 20 μg/ml; for inhibition at 1.25 µg/mL: drug 1.25 μg/ml; for inhibition at 6.25 µg/mL: drug 6.25 μg/ml; for inhibition at 12.5 µg/mL: drug 12.5 μg/ml
Description: Cells: Peripheral blood mononuclear cells obtained from healthy individuals. The cells were separated by a conventional method lymphoprep) and suspended in RMPI 1640 containing 5% human serum.
Stimulation of cytokine-release from human mononuclear cells: Human peripheral blood mononuclear cells from Danish donors were suspended in 1-10% (v/v) human serum in RPMI 1640 and adjusted to 2×10^6 cells per ml. 0.1 ml volumes were then dispensed into wells of 96-well microtiter plates. […] In some experiments cells were preincubated with drugs for 2 hrs before addition of stimulation antigens. The cultures were incubated overnight for TNF-α and IL-6 assays.
Supernatants were collected and assayed for TNF-α, IL-1α and IL-6 by ELISA procedures (Jakobsen et al., 1993, Fomsgaard et al., 1988, Hansen et al., 1991) with the following modifications. ELISA Maxisorp plates (Nunc, Roskilde, Denmark) were coated for 24 hrs at 4 C with 100 μl per well of 2.5 μg/ml rabbit polyclonal IgG to human recombinant TNF, IL-1α or IL-6 in 100 mM sodiumhydrogencarbonate. Non-attached sites were blocked for 1 h by 200 μl per well of 2% human serum slbumin in PBS (1 h at 37° C.), and the wells were washed 4 times in 2.5% NaCl, 0.1% Tween 20 (Merck, Darmstadt, Germany). This washing procedure was done after each of the following incubating steps:
1) 100 μl culture supernatants made to 50% (v/v) in incubation buffer (4% (v/v) normal rabbit serum, DAKO code X902), 1% polyethylene glycol (MW 6,000), 2.5% NaCl, 0.1% Tween 20 in phosphate buffered saline (PBS) were incubated 2 hrs at 37° C., dilutions of native as well as recombinant cytokine standards in the same incubation buffer were asssayed in parallel with the tested supernatants,
2) 100 μl per well of biotinilated rabbit antibodies to recombinant TNF-α, IL-1α or IL-6 (1.5 μg/ml in 0.5% human serum albumin, 0.1% Tween 20 in PBS) were added at 37° for 2 hrs,
3) […] per well of a 1:1000 dilution of streptavidin-peroxidase (Amersham, UK), at room temperature for 30 min.
Enzyme activities were quantitated after addition of 100 μl per well of 0.67 mg/ml 1,2-phenyldiamine hydrochloride (DAKO) dissolved in 100 mM citric acid-phosphate buffer, pH 5.0 containing 0.015% (v/v) H2O2. The reactions were stopped by adding 50 μl per well of 2.5 M H2SO4, and the optical densities are measured in an ELISA scanner at 490 nm against a test reference at 620 nm.
Assay: The compounds were prepared as stock solution at a concentration of 1 mg/ml in medium containing 10% DMSO. The dilutions were made in medium. The cells were stimulated with either SPAG (a malaria antigen TNF-inducer) or bacterial LPS. The supernatant of cell cultures were assayed for TNF-α using a commercial ELISA kit.

Question: How did the IC50 (Leishmania promastigotes) turn out when C=CCOc1ccc(C(=O)/C=C/c2cc(OC)cc(OC)c2)cc1 [SBC-35ma, 3,5-dimethoxy-4′-allyloxychalcone] was run?
Answer: Its IC50 is 27 ± 2 µM.

Question: What about the IC50 (human lymphocytes) of the same compound?
Answer: The IC50 was 25 ± 2 µM.

Question: What about the inhibition at 1 µg/mL (TNF-α; Table 1, LPS 1:1000) of the same compound?
Answer: The inhibition at 1 µg/mL was 0%.

Question: What about the inhibition at 5 µg/mL (TNF-α; Table 1, LPS 1:1000) of the same compound?
Answer: Its inhibition at 5 µg/mL is 1%.

Question: And the inhibition at 10 µg/mL (TNF-α; Table 1, LPS 1:1000)?
Answer: The inhibition at 10 µg/mL was 56%.

Question: And the inhibition at 20 µg/mL (TNF-α; Table 1, LPS 1:1000, preincubated 2 hrs)?
Answer: The inhibition at 20 µg/mL was 73%.

Question: What about the inhibition at 1 µg/mL (TNF-α; Table 1, SPAG 1:12.5) of the same compound?
Answer: Its inhibition at 1 µg/mL is 0%.

Question: And the inhibition at 5 µg/mL (TNF-α; Table 1, SPAG 1:12.5)?
Answer: Its inhibition at 5 µg/mL is 0%.

Question: What about the inhibition at 10 µg/mL (TNF-α; Table 1, SPAG 1:12.5) of the same compound?
Answer: The inhibition at 10 µg/mL was 55%.

Question: What about the inhibition at 20 µg/mL (TNF-α; Table 1, SPAG 1:12.5, preincubated 2 hrs) of the same compound?
Answer: The inhibition at 20 µg/mL was 100%.

Question: What about the inhibition at 1.25 µg/mL (TNF-α; Table 2, LPS 1:1000) of the same compound?
Answer: Its inhibition at 1.25 µg/mL is 2%.

Question: What about the inhibition at 6.25 µg/mL (TNF-α; Table 2, LPS 1:1000) of the same compound?
Answer: Its inhibition at 6.25 µg/mL is 23%.

Question: What about the inhibition at 12.5 µg/mL (TNF-α; Table 2, LPS 1:1000) of the same compound?
Answer: Its inhibition at 12.5 µg/mL is 28%.

Question: What about the inhibition at 20 µg/mL (TNF-α; Table 2, LPS 1:1000, preincubated 2 hours) of the same compound?
Answer: The inhibition at 20 µg/mL was 33%.

Question: What about the inhibition at 1.25 µg/mL (TNF-α; Table 2, SPAG 1:12.5) of the same compound?
Answer: Its inhibition at 1.25 µg/mL is 87%.

Question: And the inhibition at 6.25 µg/mL (TNF-α; Table 2, SPAG 1:12.5)?
Answer: The inhibition at 6.25 µg/mL was 99%.

Question: What about the inhibition at 12.5 µg/mL (TNF-α; Table 2, SPAG 1:12.5) of the same compound?
Answer: The inhibition at 12.5 µg/mL was 100%.

Question: And the inhibition at 20 µg/mL (TNF-α; Table 2, SPAG 1:12.5, preincubated 2 hours)?
Answer: The inhibition at 20 µg/mL was 100%.
